The values that follow come from patent US12630564B2, “Internal cyclic sulphiamidine amide-aryl amide compound and use thereof for treating hepatitis B” (SHANGHAI LONGWOOD BIOPHARMACEUTICALS CO., LTD., priority 2019, dated 2026).

What all share (assay type): cell-based
Series [1] can be described thus: Determination of cytotoxicity, HepG2 cells, resazurin assay (Experiment 3). The note with it: human. The procedure: (§1) Experiment 3: Determination of Cytotoxicity
(§2) The cytotoxicity of the test compound was tested using HepG2 cells. The cells were incubated for 4 days in the presence of the test compound. Cell activity was assessed using the resazurin assay.

The subject of series [2] is HBV DNA in the supernatant of HepG2.2.15. In words: Determination of anti-HBV activity in HepG2.2.15 cell, HBV DNA in supernatant by qPCR (Experiment 2). The note with it: Hepatitis B virus, HepG2.2.15, HepG2.2.15 cells. As to the method:
Experiment 2: Determination of Anti-HBV Activity in HepG2.2.15 Cell
• QIAamp 96 DNA Blood Kit (12) (Qiagen, Item No. 51162); • FastStart Universal Probe Master (Roche, Item No. 04914058001); • Cell-titer Glo Testing Reagent (Promega, Item No. G7573).
Compound dilution: all the compounds for in vitro anti-HBV activity assay and cytotoxicity assay were 3-fold diluted into 8 concentrations. The final starting concentration of the tested compound was 30 μM, the final starting concentration of reference compound GLS4 was 1 μM, and the final concentration of DMSO was 0.5%.
HepG2.2.15 cells (4×10^4 cells/well) was inoculated into 96-well plates and cultured overnight at 37° C., 5% CO2. On the second day, fresh culture medium containing different concentrations of compounds was added into the culture wells. On the fifth day, the old culture solution in the culture well was aspirated and fresh culture medium containing different concentrations of the compound was added.
On the eighth day, the supernatant in the culture well was collected for extraction of HBV DNA, and the content of HBV DNA in the supernatant of HepG2.2.15 was detected by qPCR. After the supernatant was collected, the medium and Cell-titer Glo reagent were added into the culture well, and the chemiluminescence value of each well was measured by microplate reader.
The activity calculation formula was as follows: Y=Bottom+(Top−Bottom)/(1+10^((Log IC50−X)*HillSlope)); • wherein, • X represents the logarithm of the concentration, Y represents the effect value, and Y starts from the bottom and fits to the top by S type fitting.
Bottom represents the bottom of the curve;
Top represents the top of the curve;
HillSlope represents the absolute value of the maximum slope of the curve.

For another series, the system named is HepG2 cells. In words: Determination of cytotoxicity, HepG2 cells, resazurin assay (Experiment 3). The note with it: 4 days. As to the method: as §1, §2

In the case of `Cn1cc2c(c1C(=O)Nc1ccc(F)c(C#N)c1)C=C[C@H](Cc1ccc(F)cc1)NS2(=N)=O` (single isomer, unassigned) [Compound 100c04], in series [1], the cytotoxic concentration (CC50) at 4 days is over 30000 nM. The compound further had an EC50 in series [2] of 0.1 to 100 nM.

Consider `CC(C)[C@H]1C=Cc2c(cn(C)c2C(=O)Nc2ccc(F)c(C#N)c2)S(=N)(=O)N1` (single isomer, unassigned) [Compound 10b2], for which the 50% cytotoxic concentration (CC50) with HepG2 cells is over 30000 nM.

With `Cn1cc2c(c1C(=O)Nc1ccc(F)c(C#N)c1)C=C[C@H](CC1CC1)NS2(=N)=O` (single isomer, unassigned) [Compound 100b04], in series [1], the half-maximal cytotoxic concentration (CC50) at 4 days is over 30000 nM. The EC50 in series [2] lay within 0.1 to 100 nM.

As to `Cn1cc2c(c1C(=O)Nc1ccc(F)c(C#N)c1)CC[C@H](CC1CC1)NS2(=N)=O` (single isomer, unassigned) [Compound 100b02], the CC50 at 4 days in series [1] was over 30000 nM. The concentration for a half-maximal effect (EC50) in series [2] was in the range of 0.1 to 100 nM.

As to `COc1ccc(C[C@H]2CCc3c(cn(C)c3C(=O)Nc3ccc(F)c(C#N)c3)S(=N)(=O)N2)cc1` (single isomer, unassigned) [Compound 100c14], the CC50 at 4 days in series [1] is over 30000 nM. In series [2], this compound displayed a half-maximal effective concentration (EC50) of 0.1 to 100 nM.

Regarding `CC(C)[C@@H]1C=Cc2c(cn(C)c2C(=O)Nc2ccc(F)c(C#N)c2)S(=N)(=O)N1` (single isomer, unassigned) [Compound 10h2], in the series with HepG2 cells, the CC50 was over 30000 nM.

The compound `Cn1cc2c(c1C(=O)Nc1ccc(F)c(C#N)c1)CC[C@H](C1CC1)NS2(=N)=O` (single isomer, unassigned) [Compound 100a02] came in with a 50% cytotoxic concentration (CC50) with HepG2 cells of over 30000 nM.

In series [1], `Cn1cc2c(c1C(=O)Nc1ccc(F)c(C#N)c1)C=C[C@H](C1CC1)NS2(=N)=O` (single isomer, unassigned) [Compound 100a04] displayed a CC50 at 4 days of over 30000 nM. Also, in series [2], the EC50 was in the range of 0.1 to 100 nM.

Compound `Cn1cc2c(c1C(=O)Nc1ccc(F)c(C#N)c1)CC[C@H](Cc1ccc(F)cc1)NS2(=N)=O` (single isomer, unassigned) [Compound 100c02] had a cytotoxic concentration (CC50) at 4 days in series [1] of over 30000 nM. The compound also gave an EC50 in series [2] of 0.1 to 100 nM.

Compound `Cn1cc2c(c1C(=O)Nc1ccc(F)c(C#N)c1)CC[C@H](C1CC1)NS2(=N)=O` (single isomer, unassigned) [Compound 100a01] came in with a cytotoxic concentration (CC50) at 4 days in series [1] of over 30000 nM.

In the case of `COc1ccc(C[C@H]2C=Cc3c(cn(C)c3C(=O)Nc3ccc(F)c(C#N)c3)S(=N)(=O)N2)cc1` (single isomer, unassigned) [Compound 100c16], the half-maximal cytotoxic concentration (CC50) at 4 days in series [1] is over 30000 nM. The same compound yielded an EC50 in series [2] of 0.1 to 100 nM.
